From ChEMBL document CHEMBL1144779, “Identification of novel cannabinoid CB1 receptor antagonists by using virtual screening with a pharmacophore model” (J Med Chem, 2008)

Key:
Cannabinoid receptor 1 [1] = target: T1, Cannabinoid receptor 1 (Homo sapiens, UniProt P21554); assay: biochemical; format: cell-based, HEK293
Description: Displacement of [3H]CP-55940 from human CB1 receptor expressed in HEK293 cells

Cannabinoid receptor 2 [2] = target: T2, Cannabinoid receptor 2 (Homo sapiens, UniProt P34972); assay: Displacement of [3H]CP-55940 from human CB2 receptor expressed in CHO cells; format: cell-based
T2 sequence (P34972 whole entry): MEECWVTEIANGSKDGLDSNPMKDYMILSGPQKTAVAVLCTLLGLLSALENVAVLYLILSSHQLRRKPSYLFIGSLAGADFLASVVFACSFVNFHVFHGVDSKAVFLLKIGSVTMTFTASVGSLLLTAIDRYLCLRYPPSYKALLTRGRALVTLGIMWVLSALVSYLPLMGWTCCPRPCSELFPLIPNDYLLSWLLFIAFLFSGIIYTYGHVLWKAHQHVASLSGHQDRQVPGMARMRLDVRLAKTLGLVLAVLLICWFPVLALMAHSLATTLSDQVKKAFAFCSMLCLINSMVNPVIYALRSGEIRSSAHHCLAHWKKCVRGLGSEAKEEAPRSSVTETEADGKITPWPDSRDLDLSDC

Cannabinoid receptor 1 [3] = target: T1, Cannabinoid receptor 1
Description: Binding affinity to CB1 receptor

Cannabinoid receptor 2 [4] = target: T2, Cannabinoid receptor 2; assay: Binding affinity to CB2 receptor
Homo sapiens = species on record: Homo sapiens; assay: Selectivity for human CB1 receptor over human CB2 receptor

T1 sequence (P21554 whole entry): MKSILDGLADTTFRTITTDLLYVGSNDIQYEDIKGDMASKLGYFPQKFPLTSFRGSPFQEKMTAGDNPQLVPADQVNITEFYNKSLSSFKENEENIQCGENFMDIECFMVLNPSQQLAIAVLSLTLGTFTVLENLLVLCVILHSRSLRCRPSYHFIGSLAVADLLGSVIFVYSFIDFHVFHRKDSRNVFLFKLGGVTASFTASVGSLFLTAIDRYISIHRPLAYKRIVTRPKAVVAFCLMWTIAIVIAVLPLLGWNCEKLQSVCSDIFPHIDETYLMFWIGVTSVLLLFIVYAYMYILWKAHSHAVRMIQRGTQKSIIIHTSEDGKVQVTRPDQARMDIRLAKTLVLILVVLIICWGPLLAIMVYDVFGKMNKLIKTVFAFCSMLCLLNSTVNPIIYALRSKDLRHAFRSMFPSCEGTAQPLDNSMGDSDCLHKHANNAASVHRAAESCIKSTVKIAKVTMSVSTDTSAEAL

Ki (Cannabinoid receptor 1 [1]) [µM] | Ki (Cannabinoid receptor 2 [2]) [µM] | Ki (Cannabinoid receptor 1 [3]) [µM] | Ki (Cannabinoid receptor 2 [4]) [µM] | Ratio Ki (Homo sapiens) | SMILES
0.244 | 1.09 |  |  |  | COc1ccc([C@@H]2[C@@H](CCCc3cccnc3)C(=O)N2c2ccccc2)cc1
0.839 | 0.194 |  |  |  | COc1ccc([C@@H]2[C@@H](Cc3cc4ccccc4o3)C(=O)N2c2ccccc2)cc1
 |  | 0.0058 | 2.31 |  | O=C(NN1CCCCC1)c1nn(-c2ccc(Cl)cc2Cl)c(-c2ccc(-c3cccnc3)cc2)c1CO
0.0528 | 0.282 |  |  | 5 | CC(=O)SC(CCc1ccccc1)[C@H]1C(=O)N(c2ccc(F)cc2)[C@@H]1c1ccc(O)cc1 (stereo partly specified)
 |  | < 0.1 |  |  | CS(=O)(=O)C(=C1CN(C(c2ccc(Cl)cc2)c2ccc(Cl)cc2)C1)c1cc(F)cc(F)c1
0.301 | > 1.82 |  |  |  | O=C1[C@@H](CCC(O)c2ccc(F)cc2)[C@H](c2ccc(O)cc2)N1c1ccc(F)cc1 (stereo partly specified)
 |  |  | 0.021 |  | O=C(NN1CCCCC1)c1nn(-c2ccc(Cl)cc2Cl)c2c1CCCc1cc(Cl)ccc1-2
0.451 | 1.24 |  |  |  | COc1ccc(C2C(CCS(=O)(=O)c3ccccc3)C(=O)N2c2ccccc2)cc1 (stereo unspecified)
 |  |  | > 10 |  | COc1ccc(-c2oc3cc(OC)ccc3c2C(=O)c2ccc(C#N)cc2)cc1
